The values below come from ChEMBL document CHEMBL5634174, “Biological evaluation of sulfonate and sulfate analogues of lithocholic acid: A bioisosterism-guided approach towards the discovery of potential sialyltransferase inhibitors for antimetastatic study” (Bioorg Med Chem Lett, 2024).

For orientation: inhibition means the drop in the measured response relative to a control, in per cent. One may read the IC50 as the midpoint of a concentration-inhibition curve. The Ki is the dissociation constant of the complex between target and ligand, obtained from inhibition or displacement.

Experiment [1] deals with T1, Beta-galactoside alpha-2,6-sialyltransferase 1 (Homo sapiens) (UniProt P15907).
T1 sequence (whole entry): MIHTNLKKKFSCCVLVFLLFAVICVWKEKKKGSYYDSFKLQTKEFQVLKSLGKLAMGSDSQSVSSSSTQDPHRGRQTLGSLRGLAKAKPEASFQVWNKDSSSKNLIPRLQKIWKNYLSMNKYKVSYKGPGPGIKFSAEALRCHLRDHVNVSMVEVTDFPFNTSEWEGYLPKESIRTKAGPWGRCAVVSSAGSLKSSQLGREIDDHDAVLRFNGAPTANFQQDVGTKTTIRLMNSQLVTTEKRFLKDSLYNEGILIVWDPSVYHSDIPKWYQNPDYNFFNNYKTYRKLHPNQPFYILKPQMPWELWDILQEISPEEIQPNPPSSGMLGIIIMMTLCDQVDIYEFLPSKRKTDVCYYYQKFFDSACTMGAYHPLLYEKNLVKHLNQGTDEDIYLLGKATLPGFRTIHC
Kind of experiment: Inhibition of recombinant human N-terminal His tagged ST6GAL1 (44 to 406 residues) at 50 uM by UPLC-based assay relative to control.

The target of experiment [2] is T2, Beta-galactoside alpha-2,6-sialyltransferase 1 (Homo sapiens, UniProt P15907).
T2 sequence (P15907 whole entry): T1 sequence (whole entry)
Kind of experiment: Inhibition of recombinant human N-terminal His tagged ST6GAL1 (44 to 406 residues) by UPLC-based assay.

Experiment [3] concerns the target T3, Sialyltransferase ST3Gal-I (Rattus norvegicus) (UniProt Q6H8N0).
T3 sequence (whole entry): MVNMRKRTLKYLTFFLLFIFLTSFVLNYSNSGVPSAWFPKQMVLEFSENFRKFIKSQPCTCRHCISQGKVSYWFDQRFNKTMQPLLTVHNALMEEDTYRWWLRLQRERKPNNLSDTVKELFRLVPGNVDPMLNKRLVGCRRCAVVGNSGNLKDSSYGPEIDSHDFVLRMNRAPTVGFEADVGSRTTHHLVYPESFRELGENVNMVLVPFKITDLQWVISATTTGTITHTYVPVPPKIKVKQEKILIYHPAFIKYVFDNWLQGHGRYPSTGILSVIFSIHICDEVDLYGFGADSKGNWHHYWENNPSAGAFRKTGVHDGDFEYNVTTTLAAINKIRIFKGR
Kind of experiment: Inhibition of rat ST3GAL1 at 500 uM by UPLC-based assay relative to control.

Experiment [4] concerns the target T3, Sialyltransferase ST3Gal-I (Rattus norvegicus). Kind of experiment: Inhibition of rat ST3GAL1 at 1000 uM by UPLC-based assay relative to control.
For experiment [5], the target named is T4, Sialyltransferase ST3Gal-I (Rattus norvegicus, UniProt Q6H8N0).
T4 sequence (Q6H8N0 whole entry): T3 sequence (whole entry)
Kind of experiment: Inhibition of rat ST3GAL1 by UPLC-based assay.

In experiment [6] the test system is MDA-MB-231. Kind of experiment: Antiproliferative activity against human MDA-MB-231 cells assessed as cell viability at 80 uM by MTT assay. In kind it is functional, cell-based.
Experiment [7] has as its target T5, CMP-N-acetylneuraminate-beta-1,4-galactoside alpha-2,3-sialyltransferase (Homo sapiens, UniProt Q11203).
T5 sequence (Q11203 whole entry): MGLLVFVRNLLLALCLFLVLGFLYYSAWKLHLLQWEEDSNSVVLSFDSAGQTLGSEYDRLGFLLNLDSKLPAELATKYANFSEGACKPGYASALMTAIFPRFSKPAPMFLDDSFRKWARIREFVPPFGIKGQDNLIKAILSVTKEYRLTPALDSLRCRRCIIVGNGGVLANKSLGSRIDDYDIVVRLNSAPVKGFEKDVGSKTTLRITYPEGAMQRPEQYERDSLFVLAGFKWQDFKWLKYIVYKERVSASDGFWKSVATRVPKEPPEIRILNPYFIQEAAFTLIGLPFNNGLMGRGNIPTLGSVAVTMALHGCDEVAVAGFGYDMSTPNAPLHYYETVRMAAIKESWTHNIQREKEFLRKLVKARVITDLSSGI
Kind of experiment: Inhibition of ST3GAL3 (unknown origin).

The target in experiment [8] is T6, CMP-N-acetylneuraminate-beta-galactosamide-alpha-2,3-sialyltransferase 1 (Homo sapiens, UniProt Q11201).
T6 sequence (Q11201 whole entry): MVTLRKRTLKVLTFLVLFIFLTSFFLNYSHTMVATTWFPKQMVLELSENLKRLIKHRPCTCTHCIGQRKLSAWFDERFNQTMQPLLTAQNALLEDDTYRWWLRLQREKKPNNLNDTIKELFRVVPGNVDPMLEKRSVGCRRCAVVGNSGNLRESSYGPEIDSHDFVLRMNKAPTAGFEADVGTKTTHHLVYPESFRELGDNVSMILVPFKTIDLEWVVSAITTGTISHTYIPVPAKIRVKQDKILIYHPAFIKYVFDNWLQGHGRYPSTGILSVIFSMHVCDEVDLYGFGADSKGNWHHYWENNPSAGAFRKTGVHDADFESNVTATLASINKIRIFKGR
Kind of experiment: Inhibition of ST3GAL1 (unknown origin).

For experiment [9], the target named is T2, Beta-galactoside alpha-2,6-sialyltransferase 1. Kind of experiment: Inhibition of ST6GAL1 (unknown origin).
The nature of experiment [10]: Selectivity index, ratio of IC50 for inhibition of rat ST3GAL1 to IC50 for inhibition of human ST6GAL1.
The subject of experiment [11] is MDA-MB-231. Kind of experiment: Antimigratory activity against human MDA-MB-231 cells at 60 uM incubated for 16 hrs by transwell migration assay. In kind it is functional, cell-based.
In experiment [12] the test system is MDA-MB-231. Kind of experiment: Inhibition of cell invasion in human MDA-MB-231 cells assessed as reduction in cell adhesion to collagen IV at 60 uM incubated for 48 hrs. In kind it is functional, cell-based.
Experiment [13] concerns MDA-MB-231. Kind of experiment: Inhibition of cell invasion in human MDA-MB-231 cells assessed as reduction in cell adhesion to fibronectin at 60 uM incubated for 24 hrs. The format is functional, cell-based.
For experiment [14], the system named is MDA-MB-231. Kind of experiment: Inhibition of cell invasion in human MDA-MB-231 cells assessed as reduction in cell adhesion at 60 uM after 48 hrs. In kind it is functional, cell-based.
In experiment [15] the target is T2, Beta-galactoside alpha-2,6-sialyltransferase 1. Kind of experiment: Inhibition of human ST6GAL1 in the Galbeta1,4GlcNAcbeta-4,5-dimethoxy-2-nitrobenzyl.
In experiment [16] the target is T7, CMP-N-acetylneuraminate-beta-galactosamide-alpha-2,3-sialyltransferase 1 (Mus musculus, UniProt P54751).
T7 sequence (P54751 whole entry): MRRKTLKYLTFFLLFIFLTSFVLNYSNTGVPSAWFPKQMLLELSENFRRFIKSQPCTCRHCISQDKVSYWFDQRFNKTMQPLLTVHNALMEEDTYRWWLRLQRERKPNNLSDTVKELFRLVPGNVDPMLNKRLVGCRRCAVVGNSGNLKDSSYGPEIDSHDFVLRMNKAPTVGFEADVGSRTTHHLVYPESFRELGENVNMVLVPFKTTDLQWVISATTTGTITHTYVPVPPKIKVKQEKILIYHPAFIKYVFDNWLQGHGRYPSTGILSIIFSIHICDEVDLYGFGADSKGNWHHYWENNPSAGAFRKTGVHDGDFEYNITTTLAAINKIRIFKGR
Kind of experiment: Inhibition of mouse brain ST3Gal1 expressed in COS-7 cells using CMP-[14C]NeuAc as substrate assessed as inhibition of constant incubated for 30 mins in presence of Galbeta1,3GalNAcOBzl by Lineweaver-Burk plot analysis.

Calls of active or inactive are those of the source. The rule behind the calls is not given here.

For the molecule `C[C@H](CCCS(=O)(=O)O)[C@H]1CC[C@H]2[C@@H]3CC[C@@H]4C[C@H](OS(=O)(=O)O)CC[C@]4(C)[C@H]3CC[C@]12C`, the inhibition was found to be 0% in [1], 35% in experiment [3] and 100% in [4]. Moreover, the IC50 in [2] was more than 50 µM; in experiment [5], 500 µM. Besides, in experiment [6], the outcome was Active.

Turning to `C[C@H](CCC(=O)O)[C@H]1CC[C@H]2[C@@H]3CC[C@@H]4C[C@H](OC(=O)[C@H](CC(=O)O)Nc5ccc([N+](=O)[O-])c6nonc56)CC[C@]4(C)[C@H]3CC[C@]12C`, the IC50 in [7] was determined as 0.88 µM; in experiment [8] it was 13 µM; in [9] it was 1.5 µM.

On to `C[C@H](CCCOS(=O)(=O)O)[C@H]1CC[C@H]2[C@@H]3CC[C@@H]4C[C@H](OS(=O)(=O)O)CC[C@]4(C)[C@H]3CC[C@]12C`, for which the values for the inhibition in experiment [1], in experiment [3] and in [4] were 100%, 90% and 100%, respectively. The concentration for half-maximal inhibition (IC50) in experiment [2] was determined as 21.5 µM; in experiment [5] it was 402 µM. In addition, in experiment [10], the Ratio IC50 worked out at 19. Besides, in experiment [11], the result was Active. Further, the inhibition entry in [12] and in [13] was “Active” throughout. The inhibition entry in experiment [14] was “inactive”.

`C[C@H](CCC(=O)O)[C@H]1CC[C@H]2[C@@H]3[C@@H](O)C[C@@H]4C[C@H](O)CC[C@]4(C)[C@H]3CC[C@]12C` [URSODIOL]: the inhibition was 0% in [1] and 3% in experiment [3]. The IC50 in experiment [2] was more than 50 µM; in experiment [5], more than 500 µM.

As for `C[C@H](CCCS(=O)(=O)O)[C@H]1CC[C@H]2[C@@H]3CC[C@@H]4C[C@H](O)CC[C@]4(C)[C@H]3CC[C@]12C`, the inhibition in [1] amounted to 100%; in [3] it was 5%; in experiment [4], 40%. Also, the half-inhibitory concentration (IC50) in [2] is 18.5 µM; in experiment [5], more than 1000 µM. In [10], the Ratio IC50 was more than 54. Besides, the result in experiment [11] was Active.

In the case of `C[C@H](CCC(=O)O)[C@H]1CC[C@H]2[C@@H]3[C@H](O)C[C@@H]4C[C@H](O)CC[C@]4(C)[C@H]3CC[C@]12C` [CHENODIOL], the inhibition in experiment [1] was 0%; in [3], 6%. For the same molecule, the IC50 in experiment [2] was more than 50 µM; in [5], more than 500 µM.

As for `C[C@H](CCC(=O)O)[C@H]1CC[C@H]2[C@@H]3CC[C@@H]4C[C@H](OC(=O)[C@@H](N)CC(=O)O)CC[C@]4(C)[C@H]3CC[C@]12C`, it took 17 µM to reach half-maximal inhibition in [15] (IC50).

In the case of `C[C@H](CCC(=O)O)[C@H]1CC[C@H]2[C@@H]3C[C@H](O)[C@@H]4C[C@H](O)CC[C@]4(C)[C@H]3CC[C@]12C` [HYODEOXYCHOLIC_ACID], the figures for the inhibition in experiment [1] and in experiment [3] were 0% and 7%, respectively. The concentration for half-maximal inhibition (IC50) in experiment [2] was more than 50 µM; in experiment [5], more than 500 µM.

On to `C[C@H](CCC(=O)O)[C@H]1CC[C@H]2[C@@H]3CC[C@@H]4C[C@H](OS(=O)(=O)O)CC[C@]4(C)[C@H]3CC[C@]12C`, for which the inhibition in experiment [1] is 0%; in experiment [3], 23%; in experiment [4] it was 82%. Also, the IC50 is more than 50 µM in experiment [2] and 500 µM in experiment [5].

For `C[C@H](CCC(=O)NCCS(=O)(=O)O)[C@H]1CC[C@H]2[C@@H]3CC[C@@H]4C[C@H](O)CC[C@]4(C)[C@H]3C[C@H](O)[C@]12C` [TAURODEOXYCHOLIC ACID], the inhibition turned out to be 0% in [1] and 3% in [3]. For the same molecule, the IC50 in experiment [2] is more than 50 µM; in experiment [5], more than 500 µM.

For `C[C@@H]1O[C@@H](O[C@H]2[C@H](O[C@H]3[C@H](O[C@H]4CC[C@@]5(C)[C@@H](CC[C@]6(C)[C@@H]5CC=C5[C@@H]7CC(C)(C)C[C@@H](O)[C@]7(C)CC[C@]56C)[C@@]4(C)CO)O[C@H](C(=O)O)[C@@H](O)[C@@H]3O)O[C@H](CO)[C@H](O)[C@@H]2O)[C@H](O)[C@H](O)[C@H]1O` [SOYASAPONIN I], the Ki in [16] was 2.3 µM.

For the molecule `C[C@H](CCC(=O)O)[C@H]1CC[C@H]2[C@@H]3CC[C@@H]4C[C@H](O)CC[C@]4(C)[C@H]3CC[C@]12C` [LITHOCHOLIC ACID], the inhibition in experiment [1] amounted to 0%; in experiment [3] it was 53%; in experiment [4], 64%. Moreover, the IC50 in [2] is more than 50 µM; in experiment [5], 500 µM.
